Data set [1] addresses T1, Human immunodeficiency virus type 1 protease (Human immunodeficiency virus 1, UniProt Q72874). Description: (§1) Tested for the HIV Protease inhibitory activity of the compound.
Data set [2] can be described thus: Oral bioavailability in rat. To be noted: in vivo. The format is ADME, organism-based.
Data set [3] is described as follows: Tested for pharmacokinetic parameter to calculate the total body clearance at a dosage of 2.5 mg/kg in dog. It counts as ADME, organism-based, Canis lupus familiaris. The following applies: in vivo, read-out: ClT. Set-up: dose 2.5 mg/kg.
A short description of data set [4]: Tested for pharmacokinetic parameter to calculate the half life period at a dosage of 12 mg/kg in rat. The format is ADME, organism-based. To be noted: in vivo. More on the design: dose 12 mg/kg.
Data set [5] deals with T2, Cathepsin E (Homo sapiens) (UniProt P14091).
T2 sequence (whole entry): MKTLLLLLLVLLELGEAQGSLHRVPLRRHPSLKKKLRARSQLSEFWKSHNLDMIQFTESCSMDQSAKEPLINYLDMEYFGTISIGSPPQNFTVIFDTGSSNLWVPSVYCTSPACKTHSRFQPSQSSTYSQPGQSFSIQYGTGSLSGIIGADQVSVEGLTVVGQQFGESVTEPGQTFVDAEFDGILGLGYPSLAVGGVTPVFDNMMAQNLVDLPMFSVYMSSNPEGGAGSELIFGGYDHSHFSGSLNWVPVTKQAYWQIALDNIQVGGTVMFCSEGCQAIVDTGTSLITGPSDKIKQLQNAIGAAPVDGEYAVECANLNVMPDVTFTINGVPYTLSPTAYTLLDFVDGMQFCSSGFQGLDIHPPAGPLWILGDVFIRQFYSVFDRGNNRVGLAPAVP
Description: Tested for the inhibitory activity against human aspartyl protease, cathepsin E at 10 uM concentration.

Data set [6] concerns the target Gastricsin (Homo sapiens) (UniProt P20142). Description: Tested for the inhibitory activity against human aspartyl protease gastricsin at 10 uM concentration.
The target of data set [7] is Human immunodeficiency virus type 1 protease (Human immunodeficiency virus 1) (UniProt Q72874). Description: Tested for the activity against HIV protease.
The nature of data set [8]: Tested for pharmacokinetic parameter to calculate the half life period at a dosage of 2.5 mg/kg in dog. Set-up: dose 2.5 mg/kg. The format is ADME, organism-based, Canis lupus familiaris. The following applies: in vivo.
The target in data set [9] is Cathepsin D (Homo sapiens) (UniProt P07339). The data set can be described thus: Tested for the inhibitory activity against human aspartyl protease, cathepsin D at 10 uM concentration.
Sequence of Cathepsin D (Homo sapiens) (P07339 65-162 limits assumed): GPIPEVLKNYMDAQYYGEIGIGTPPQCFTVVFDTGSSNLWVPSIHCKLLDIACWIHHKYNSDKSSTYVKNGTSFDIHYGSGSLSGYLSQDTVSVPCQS
Sequence of Cathepsin D (Homo sapiens) (P07339 169-412 limits assumed): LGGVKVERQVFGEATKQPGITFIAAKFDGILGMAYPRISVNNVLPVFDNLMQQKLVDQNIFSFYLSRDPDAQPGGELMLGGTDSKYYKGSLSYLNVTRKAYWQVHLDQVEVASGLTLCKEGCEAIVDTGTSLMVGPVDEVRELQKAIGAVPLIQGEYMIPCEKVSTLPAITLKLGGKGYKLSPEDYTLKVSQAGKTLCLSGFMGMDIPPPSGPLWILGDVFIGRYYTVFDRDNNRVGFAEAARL
The target in data set [10] is T1, Human immunodeficiency virus type 1 protease. The data set can be described thus: Tested for the binding affinity against HIV-1 Protease.
The nature of data set [11]: Oral bioavailability in dog. The format is ADME, organism-based, Canis lupus familiaris. To be noted: in vivo.
Data set [12] can be described thus: Tested for antiviral activity against clinical isolates such as AZT resistant strain. The format is functional. The following applies: read-out: ED50 (the source's name).
Data set [13] in a line: Tested for pharmacokinetic parameter to calculate the steady-state volume of distributio at a dosage of 12 mg/kg in rat. The format is ADME, organism-based. Set-up: dose 12 mg/kg. The following applies: in vivo, read-out: Vss.
The target of the next data set is Pepsin A (Homo sapiens) (UniProt P0DJD9). The data set can be described thus: Inhibitory activity against human aspartyl protease, pepsin at 10 uM.
Sequence of Pepsin A (Homo sapiens) (P0DJD9 63-388 limits assumed): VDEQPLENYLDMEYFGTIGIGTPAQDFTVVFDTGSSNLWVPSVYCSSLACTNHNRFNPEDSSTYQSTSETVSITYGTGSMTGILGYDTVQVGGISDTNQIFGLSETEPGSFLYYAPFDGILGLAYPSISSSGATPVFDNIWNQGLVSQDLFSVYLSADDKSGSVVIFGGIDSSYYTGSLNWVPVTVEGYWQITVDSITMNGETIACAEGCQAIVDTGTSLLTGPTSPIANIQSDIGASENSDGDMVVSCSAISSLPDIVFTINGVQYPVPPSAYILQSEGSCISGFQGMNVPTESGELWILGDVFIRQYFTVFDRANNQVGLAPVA
The nature of data set [14]: Tested for pharmacokinetic parameter to calculate the steady-state volume of distributio at a dosage of 2.5 mg/kg in dog. The format is ADME, organism-based, Canis lupus familiaris. More on the design: dose 2.5 mg/kg. To be noted: in vivo, read-out: Vss.
In a further data set the test system is H9. Description: Tested for the antiviral activity against HIV-1 IIIB-infected H9 cells. It counts as functional. The following applies: Homo sapiens, read-out: ED50 (the source's name).
Data set [15] is described as follows: Tested for pharmacokinetic parameter to calculate the total body clearance at a dosage of 12 mg/kg in rat. The format is ADME, organism-based. Set-up: dose 12 mg/kg. The following applies: in vivo, read-out: ClT.
The target of the next data set is T3, Renin (Homo sapiens) (UniProt P00797).
T3 sequence (whole entry): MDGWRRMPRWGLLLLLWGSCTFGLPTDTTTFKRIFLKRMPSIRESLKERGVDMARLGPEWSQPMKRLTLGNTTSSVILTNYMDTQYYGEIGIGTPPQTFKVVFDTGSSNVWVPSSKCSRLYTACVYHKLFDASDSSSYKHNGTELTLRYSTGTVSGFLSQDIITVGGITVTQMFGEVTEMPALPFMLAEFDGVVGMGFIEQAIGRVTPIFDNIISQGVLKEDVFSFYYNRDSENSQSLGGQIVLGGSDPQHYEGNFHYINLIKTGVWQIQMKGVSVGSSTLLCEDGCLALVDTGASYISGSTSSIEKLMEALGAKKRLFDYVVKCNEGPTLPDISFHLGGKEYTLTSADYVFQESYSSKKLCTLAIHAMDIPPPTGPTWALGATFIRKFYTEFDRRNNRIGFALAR
Description: Tested for the inhibitory activity against human aspartyl protease, renin at 10 uM concentration.

The test system of the next data set is MT4. The data set can be described thus: Tested for the antiviral activity against HIV-1 IIIB-infected MT-4. It counts as functional. To be noted: Homo sapiens, read-out: ED50 (the source's name).
Data set [16] has as its target T1, Human immunodeficiency virus type 1 protease. The data set is described as §1. The format is functional.
Data set [17] is described as follows: Tested for antiviral activity in HIV-1 infected PBMC; 100-300. It counts as functional. The following applies: Human immunodeficiency virus 1; read-out: ED50 (the source's name).

Sequence of Gastricsin (Homo sapiens) (P20142 whole entry, looked up): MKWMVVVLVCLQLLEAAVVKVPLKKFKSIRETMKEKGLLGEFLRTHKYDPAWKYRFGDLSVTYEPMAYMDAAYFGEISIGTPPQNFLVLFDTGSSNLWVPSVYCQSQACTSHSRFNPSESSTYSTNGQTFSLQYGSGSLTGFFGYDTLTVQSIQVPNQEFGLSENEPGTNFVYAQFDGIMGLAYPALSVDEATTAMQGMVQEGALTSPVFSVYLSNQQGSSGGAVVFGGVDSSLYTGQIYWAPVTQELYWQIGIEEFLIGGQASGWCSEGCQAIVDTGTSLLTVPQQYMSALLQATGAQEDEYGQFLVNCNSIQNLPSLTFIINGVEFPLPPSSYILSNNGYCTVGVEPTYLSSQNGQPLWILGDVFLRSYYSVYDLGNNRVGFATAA

In data set [1], `CCC(c1ccccc1)c1c(O)cc(CCc2ccccc2)oc1=O` (configuration not stated) displayed a Ki of 0.5 µM.

Take `CCC(Cc1ccccc1)c1cc(O)c(C(CC)c2ccccc2)c(=O)o1` (configuration not stated): the bioavailability in data set [2] was 76%; in data set [11], 45%. Also, the clearance in data set [3] is 0.7 mL/min/kg; in [15], 0.8 mL/min/kg. In addition, the half-life in data set [4] is 4 h; in data set [8], 6 h. For the same molecule, the inhibition came to 72% in data set [5]; 0% in data set [6]; 52% in [9]; 53% against Pepsin A (Homo sapiens); 0% against Renin (Homo sapiens). The molecule also gave a TCID50 in data set [7] of 20 µM. The same molecule returned an inhibitory constant (Ki) in [10] of 0.038 µM. For the same molecule, the EC50 worked out at 4 µM in data set [12], 3 µM in the data set on H9 and 3 µM in the data set with MT4. Also, the Vd is 0.1 L/kg in [13] and 0.26 L/kg in data set [14].

`CC(=O)CC(c1ccccc1)c1c(O)c2ccccc2oc1=O` (configuration not stated) [WARFARIN] displayed an IC50 in data set [16] of around 30 µM.

For `CCC(c1ccccc1)c1c(O)c2ccccc2oc1=O` (configuration not stated) [PHENPROCOUMON], in data set [1], the affinity, expressed as Ki, was 1 µM. Besides, the EC50 in [17] was determined as 300 µM.

Usually Ki stands for the equilibrium dissociation constant of an inhibitor or competing ligand from its target. A higher Ki goes with lower affinity. As a reminder, the bioavailability is the share of a dose that reaches the circulation, judged against a reference dose that is usually intravenous. As usually defined, the half-life is the time needed for the level to fall by half in the phase considered. As a reminder, the inhibition is how much of the control response was suppressed. The IC50 is the concentration needed to halve the response being measured.

Source of the values: ChEMBL document CHEMBL1127342, “Structure-based design of HIV protease inhibitors: 4-hydroxycoumarins and 4-hydroxy-2-pyrones as non-peptidic inhibitors” (J Med Chem, 1994).
